Structures can show the parent of a compound that is named as a salt. Active and inactive are the calls of the source. Rule as the data show it, for most assays here: actives have a measured Kd and inactives only a lower limit.
How the values were obtained:
[1] = target: T1, Acyl-CoA dehydrogenase family member 11 (Homo sapiens, UniProt Q709F0)
T1 sequence (Q709F0 whole entry): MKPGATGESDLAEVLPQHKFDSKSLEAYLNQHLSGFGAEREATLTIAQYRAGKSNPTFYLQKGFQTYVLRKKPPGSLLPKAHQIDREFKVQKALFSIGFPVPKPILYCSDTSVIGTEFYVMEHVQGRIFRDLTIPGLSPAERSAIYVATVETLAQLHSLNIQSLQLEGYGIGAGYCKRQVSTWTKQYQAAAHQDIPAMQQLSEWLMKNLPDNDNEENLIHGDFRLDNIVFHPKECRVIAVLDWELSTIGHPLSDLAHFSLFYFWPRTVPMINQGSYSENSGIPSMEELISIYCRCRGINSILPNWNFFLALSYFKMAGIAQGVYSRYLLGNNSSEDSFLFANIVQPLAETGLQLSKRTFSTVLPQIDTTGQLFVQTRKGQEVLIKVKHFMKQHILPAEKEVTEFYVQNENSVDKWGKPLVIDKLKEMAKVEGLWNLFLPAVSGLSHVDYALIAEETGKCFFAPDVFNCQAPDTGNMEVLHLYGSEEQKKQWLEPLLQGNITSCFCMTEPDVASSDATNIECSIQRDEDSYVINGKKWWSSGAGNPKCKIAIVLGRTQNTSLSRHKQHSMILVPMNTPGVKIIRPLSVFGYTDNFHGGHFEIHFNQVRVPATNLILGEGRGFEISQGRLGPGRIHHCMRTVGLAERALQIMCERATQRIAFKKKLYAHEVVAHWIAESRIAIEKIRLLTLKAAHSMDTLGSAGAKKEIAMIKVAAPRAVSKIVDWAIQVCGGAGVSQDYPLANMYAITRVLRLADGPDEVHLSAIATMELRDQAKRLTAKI

[2] = target: T2, Serine/threonine-protein kinase LATS1 (Homo sapiens, UniProt O95835)
T2 sequence (O95835 whole entry): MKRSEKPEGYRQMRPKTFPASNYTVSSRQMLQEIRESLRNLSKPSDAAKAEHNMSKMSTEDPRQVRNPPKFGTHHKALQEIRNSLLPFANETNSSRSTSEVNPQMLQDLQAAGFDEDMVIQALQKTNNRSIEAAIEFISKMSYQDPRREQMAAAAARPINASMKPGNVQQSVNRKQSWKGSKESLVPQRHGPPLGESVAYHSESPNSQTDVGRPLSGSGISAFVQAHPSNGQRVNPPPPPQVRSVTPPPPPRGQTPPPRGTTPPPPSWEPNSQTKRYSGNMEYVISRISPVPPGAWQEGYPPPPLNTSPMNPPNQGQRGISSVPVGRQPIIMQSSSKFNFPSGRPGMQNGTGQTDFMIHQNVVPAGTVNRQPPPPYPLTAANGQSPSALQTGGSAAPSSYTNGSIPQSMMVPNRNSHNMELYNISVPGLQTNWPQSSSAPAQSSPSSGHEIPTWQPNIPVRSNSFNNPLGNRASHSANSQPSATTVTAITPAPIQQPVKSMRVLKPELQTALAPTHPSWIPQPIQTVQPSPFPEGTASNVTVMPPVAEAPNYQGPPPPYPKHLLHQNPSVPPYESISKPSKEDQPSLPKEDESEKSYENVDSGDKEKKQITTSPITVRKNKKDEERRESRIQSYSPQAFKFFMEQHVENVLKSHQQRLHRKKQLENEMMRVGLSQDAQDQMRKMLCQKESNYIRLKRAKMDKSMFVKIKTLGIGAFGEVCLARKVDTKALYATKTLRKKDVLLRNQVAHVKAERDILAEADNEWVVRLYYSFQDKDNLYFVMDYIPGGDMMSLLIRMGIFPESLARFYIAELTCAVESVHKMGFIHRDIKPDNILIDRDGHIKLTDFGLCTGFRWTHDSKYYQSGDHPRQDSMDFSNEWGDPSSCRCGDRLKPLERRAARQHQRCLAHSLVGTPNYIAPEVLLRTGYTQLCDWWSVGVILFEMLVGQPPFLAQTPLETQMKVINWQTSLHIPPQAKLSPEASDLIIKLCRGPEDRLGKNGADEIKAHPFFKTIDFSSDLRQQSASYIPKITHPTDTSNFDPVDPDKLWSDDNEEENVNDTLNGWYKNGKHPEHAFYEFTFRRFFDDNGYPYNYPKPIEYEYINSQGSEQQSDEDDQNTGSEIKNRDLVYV

[3] = target: T3, Glycogen phosphorylase, liver form (Homo sapiens, UniProt P06737); assay type: subcellular, K-562, COLO 205, SK-N-BE(2) and MV-4-11, Cell lysate; conditions: read-out: Kd apparent
T3 sequence (P06737 whole entry): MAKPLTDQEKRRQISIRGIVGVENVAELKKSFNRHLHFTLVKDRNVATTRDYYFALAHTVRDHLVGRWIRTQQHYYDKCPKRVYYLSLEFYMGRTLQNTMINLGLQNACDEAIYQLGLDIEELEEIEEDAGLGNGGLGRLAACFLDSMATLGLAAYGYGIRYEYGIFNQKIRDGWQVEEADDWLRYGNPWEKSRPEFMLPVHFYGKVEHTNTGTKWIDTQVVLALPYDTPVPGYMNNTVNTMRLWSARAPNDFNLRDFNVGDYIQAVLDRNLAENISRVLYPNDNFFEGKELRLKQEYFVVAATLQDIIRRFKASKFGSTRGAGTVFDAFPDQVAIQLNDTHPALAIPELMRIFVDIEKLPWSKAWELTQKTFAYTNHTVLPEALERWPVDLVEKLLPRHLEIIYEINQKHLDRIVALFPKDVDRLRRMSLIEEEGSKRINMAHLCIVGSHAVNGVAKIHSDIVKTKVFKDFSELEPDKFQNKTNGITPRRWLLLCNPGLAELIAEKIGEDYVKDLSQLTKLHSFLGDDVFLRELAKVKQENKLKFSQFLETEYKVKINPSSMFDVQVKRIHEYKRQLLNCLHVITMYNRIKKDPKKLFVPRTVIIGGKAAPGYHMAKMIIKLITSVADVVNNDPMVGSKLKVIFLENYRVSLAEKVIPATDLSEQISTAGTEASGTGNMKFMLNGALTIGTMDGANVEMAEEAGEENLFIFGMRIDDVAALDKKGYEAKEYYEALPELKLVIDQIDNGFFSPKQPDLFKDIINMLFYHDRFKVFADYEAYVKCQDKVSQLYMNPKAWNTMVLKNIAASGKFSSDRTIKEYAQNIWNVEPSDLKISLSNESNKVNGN

[4] = target: Casein kinase I isoform epsilon (Homo sapiens, UniProt P49674)
Chain of Casein kinase I isoform epsilon (P49674 whole entry, canonical isoform): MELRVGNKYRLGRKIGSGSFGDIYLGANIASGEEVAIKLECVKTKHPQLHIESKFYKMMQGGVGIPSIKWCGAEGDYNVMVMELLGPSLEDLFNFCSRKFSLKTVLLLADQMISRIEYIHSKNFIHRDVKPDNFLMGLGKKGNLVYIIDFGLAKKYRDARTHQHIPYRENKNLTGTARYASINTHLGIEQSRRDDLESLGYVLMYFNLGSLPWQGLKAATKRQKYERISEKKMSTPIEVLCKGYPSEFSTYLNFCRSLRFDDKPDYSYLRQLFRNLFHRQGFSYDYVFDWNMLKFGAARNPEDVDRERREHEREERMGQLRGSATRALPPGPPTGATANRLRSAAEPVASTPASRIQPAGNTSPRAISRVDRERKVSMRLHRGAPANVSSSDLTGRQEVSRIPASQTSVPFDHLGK

[5] = target: Ribosomal protein S6 kinase alpha-5 (Homo sapiens, UniProt O75582)
Chain of Ribosomal protein S6 kinase alpha-5 (O75582 whole entry, the tested form may be a part): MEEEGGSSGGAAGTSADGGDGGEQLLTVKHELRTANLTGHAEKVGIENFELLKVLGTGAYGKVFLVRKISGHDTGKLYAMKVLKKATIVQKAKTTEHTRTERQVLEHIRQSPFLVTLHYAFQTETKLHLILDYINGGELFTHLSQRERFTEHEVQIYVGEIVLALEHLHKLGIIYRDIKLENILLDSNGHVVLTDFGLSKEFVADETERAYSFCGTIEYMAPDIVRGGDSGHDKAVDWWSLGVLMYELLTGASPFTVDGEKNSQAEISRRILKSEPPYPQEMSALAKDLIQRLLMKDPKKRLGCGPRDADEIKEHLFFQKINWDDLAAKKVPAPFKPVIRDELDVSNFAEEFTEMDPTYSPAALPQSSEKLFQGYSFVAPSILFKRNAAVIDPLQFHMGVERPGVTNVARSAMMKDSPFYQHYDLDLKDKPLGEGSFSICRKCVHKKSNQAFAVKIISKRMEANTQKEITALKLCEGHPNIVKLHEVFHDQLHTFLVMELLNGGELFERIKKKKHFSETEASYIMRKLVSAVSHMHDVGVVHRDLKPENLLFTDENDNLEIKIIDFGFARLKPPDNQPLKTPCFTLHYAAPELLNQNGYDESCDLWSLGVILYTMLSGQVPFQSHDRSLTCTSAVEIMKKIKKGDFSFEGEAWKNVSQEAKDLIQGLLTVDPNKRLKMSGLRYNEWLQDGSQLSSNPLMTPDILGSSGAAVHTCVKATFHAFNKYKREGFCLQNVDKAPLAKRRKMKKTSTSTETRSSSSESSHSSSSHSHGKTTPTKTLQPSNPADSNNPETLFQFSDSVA

LIM domain kinase 2 = LIM domain kinase 2 (Homo sapiens, UniProt P53671)
Chain of LIM domain kinase 2 (P53671 whole entry, the tested form may be a part): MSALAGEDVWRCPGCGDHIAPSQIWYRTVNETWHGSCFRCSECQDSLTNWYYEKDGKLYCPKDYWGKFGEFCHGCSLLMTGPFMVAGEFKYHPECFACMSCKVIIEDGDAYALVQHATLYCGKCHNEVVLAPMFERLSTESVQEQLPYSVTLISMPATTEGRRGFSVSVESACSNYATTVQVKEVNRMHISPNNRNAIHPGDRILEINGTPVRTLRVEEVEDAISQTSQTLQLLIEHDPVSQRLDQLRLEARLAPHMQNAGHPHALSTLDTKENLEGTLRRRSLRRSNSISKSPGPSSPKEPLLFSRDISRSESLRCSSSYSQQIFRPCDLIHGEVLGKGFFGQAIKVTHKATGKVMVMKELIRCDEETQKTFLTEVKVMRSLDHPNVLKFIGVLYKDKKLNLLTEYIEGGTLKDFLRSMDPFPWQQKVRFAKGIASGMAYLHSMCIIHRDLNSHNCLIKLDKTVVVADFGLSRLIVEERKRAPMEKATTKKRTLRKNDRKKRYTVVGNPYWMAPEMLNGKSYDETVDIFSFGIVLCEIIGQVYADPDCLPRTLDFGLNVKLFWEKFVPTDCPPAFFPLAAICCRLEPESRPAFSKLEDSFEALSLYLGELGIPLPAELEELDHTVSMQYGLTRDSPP

Measured: Kd
Also: in the data inactive means no Kd found up to 30 µM.

CC(C)(C)c1nc(-c2cccc(NS(=O)(=O)c3c(F)cccc3F)c2F)c(-c2ccnc(N)n2)s1 [DABRAFENIB]
inactive: [1] > 30 µM | [2] > 30 µM | [3] > 30 µM | [4] > 30 µM | [5] > 30 µM
active: LIM domain kinase 2 0.082 µM

CCn1cc(-c2ccnc3[nH]c(-c4cccc(CN(C)C)c4)cc23)c(-c2ccc(NC(=O)N(C)C)cc2)n1 [GSK-1070916]
inactive: [1] > 30 µM | [2] > 30 µM | [3] > 30 µM | [4] > 30 µM | [5] > 30 µM | LIM domain kinase 2 > 30 µM

C[C@@H](N)c1ccc(C(=O)Nc2ccnc3[nH]ccc23)cc1 [Y-39983]
inactive: [1] > 30 µM | [2] > 30 µM | [3] > 30 µM | [4] > 30 µM | [5] > 30 µM | LIM domain kinase 2 > 30 µM

N#CC1(c2ccc(NC(=O)c3cccnc3NCc3ccncc3)cc2)CCCC1 [RIVOCERANIB]
inactive: [1] > 30 µM | [2] > 30 µM | [3] > 30 µM | [4] > 30 µM | [5] > 30 µM | LIM domain kinase 2 > 30 µM

CCNC(=O)C#Cc1ccc2c(c1)NC(=O)/C2=C(\Nc1ccc(CN(C)C)cc1)c1ccccc1
inactive: [1] > 30 µM | [3] > 30 µM | [4] > 30 µM | [5] > 30 µM | LIM domain kinase 2 > 30 µM
active: [2] 0.635 µM

CC(C)c1cc(CNc2nc(Nc3cc(C4CC4)[nH]n3)cc(N3CCN(C)CC3)n2)on1 [XL-228]
inactive: [1] > 30 µM | [2] > 30 µM | [3] > 30 µM | [4] > 30 µM | [5] > 30 µM | LIM domain kinase 2 > 30 µM

CO[C@H]1C[C@@H]2CC[C@@H](C)[C@@](O)(O2)C(=O)C(=O)N2CCCC[C@H]2C(=O)O[C@H]([C@H](C)C[C@@H]2CC[C@@H](O)[C@H](OC)C2)CC(=O)[C@H](C)/C=C(\C)[C@@H](O)[C@@H](OC)C(=O)[C@H](C)C[C@H](C)/C=C/C=C/C=C/1C [SIROLIMUS]
inactive: [1] > 30 µM | [2] > 30 µM | [3] > 30 µM | [4] > 30 µM | [5] > 30 µM | LIM domain kinase 2 > 30 µM

COc1cc(Nc2ncc3c(n2)-c2ccc(Cl)cc2C(c2c(F)cccc2OC)=NC3)ccc1C(=O)O [ALISERTIB]
inactive: [1] > 30 µM | [2] > 30 µM | [3] > 30 µM | [4] > 30 µM | [5] > 30 µM | LIM domain kinase 2 > 30 µM

O=C(Nc1cc(C(F)(F)F)cc(C(F)(F)F)c1)c1cc(Cl)ccc1O [IMD-0354]
inactive: [1] > 30 µM | [2] > 30 µM | [3] > 30 µM | [4] > 30 µM | [5] > 30 µM | LIM domain kinase 2 > 30 µM

Cc1cc(Nc2ncnc3ccc(NC4=NC(C)(C)CO4)cc23)ccc1Oc1ccn2ncnc2c1 [TUCATINIB]
inactive: [1] > 30 µM | [2] > 30 µM | [3] > 30 µM | [4] > 30 µM | [5] > 30 µM | LIM domain kinase 2 > 30 µM

CCS(=O)(=O)c1cccc(-c2cc(C(=O)NC3CCN(C)CC3)c(C)c3[nH]c4ncc(C)cc4c23)c1 [TAK-901]
inactive: [1] > 30 µM | [2] > 30 µM | [3] > 30 µM | [4] > 30 µM | [5] > 30 µM | LIM domain kinase 2 > 30 µM

O=C(Cc1ccc(-c2ccc(OCCN3CCOCC3)cc2)cn1)NCc1ccccc1 [TIRBANIBULIN]
inactive: [1] > 30 µM | [2] > 30 µM | [3] > 30 µM | [4] > 30 µM | [5] > 30 µM | LIM domain kinase 2 > 30 µM

COc1cc2ncnc(Oc3cccc(NC(=O)Nc4cc(C(C)(C)C(F)(F)F)on4)c3)c2cc1OC [CEP-32496]
inactive: [1] > 30 µM | [2] > 30 µM | [3] > 30 µM | [4] > 30 µM | [5] > 30 µM | LIM domain kinase 2 > 30 µM

CCS(=O)(=O)N1CCN(c2ccc(Nc3ncc(C(N)=O)c(NC4CC4)n3)cc2)CC1 [Cerdulatinib Hydrochloride]
inactive: [1] > 30 µM | [3] > 30 µM | [4] > 30 µM | [5] > 30 µM | LIM domain kinase 2 > 30 µM
active: [2] 0.261 µM

Cc1cc(C(=O)NOCCO)c(Nc2ccc(I)cc2F)n(C)c1=O [AZD-8330]
inactive: [1] > 30 µM | [2] > 30 µM | [3] > 30 µM | [4] > 30 µM | [5] > 30 µM | LIM domain kinase 2 > 30 µM

C#Cc1cccc(Nc2ncnc3cc(OC)c(OCCCCCCC(=O)NO)cc23)c1 [CUDC-101]
inactive: [1] > 30 µM | [2] > 30 µM | [3] > 30 µM | [4] > 30 µM | [5] > 30 µM | LIM domain kinase 2 > 30 µM

NC1(c2ccc(-c3nc4ccn5c(=O)[nH]nc5c4cc3-c3ccccc3)cc2)CCC1 [MK-2206]
inactive: [1] > 30 µM | [2] > 30 µM | [3] > 30 µM | [4] > 30 µM | [5] > 30 µM | LIM domain kinase 2 > 30 µM

Cc1nc2cc(-c3nn(C(C)C)c4ncnc(N)c34)ccc2o1
active: [4] 0.158 µM
inactive: [1] > 30 µM | [2] > 30 µM | [3] > 30 µM | [5] > 30 µM | LIM domain kinase 2 > 30 µM

O=C1NC(=O)[C@@H](c2cn3c4c(cccc24)CCC3)[C@@H]1c1c[nH]c2ccccc12 [TIVANTINIB]
inactive: [1] > 30 µM | [2] > 30 µM | [3] > 30 µM | [4] > 30 µM | [5] > 30 µM | LIM domain kinase 2 > 30 µM

Reference: ChEMBL document CHEMBL3991601, “The target landscape of clinical kinase drugs” (Science, 2017)
